Patent US20260076909A1, “SOLID COMPOSITION AND METHOD FOR PRODUCING THE SAME” (DKS Co. Ltd., priority 2022, published 2026)

Legend:
[1] = Oral absorption evaluation: animal experiment; format: in vivo; details: male SD rats, 30 mg/kg in terms of cannabidiol, 0.5-24 hours, highest AUC of three rats
Method: Of the three rats, data of the highest AUC was employed.
In the LC-MS/MS measurement, as a pre-treatment, 20 μL of the plasma sample and 80 μL of methanol were placed into an Eppendorf tube and suspended for deproteinization. After the proteins were precipitated in a centrifuge, the supernatant was subjected to centrifugal filtration using a filter (manufactured by Millipore, Ultrafree-MC, Hydrophilic PTFE membrane, 0.2 μm). This solution and ultrapure water were mixed together in 1:1 (mass ratio), and used as the measurement sample. The measurement conditions of LC-MS/MS were column: octadecylsilyl column, ion source: ESI+, mobile phase: solution mixture of methanol/10 mM aqueous ammonium formate solution.
The solid composition of Example 5 was evaluated for oral absorption by an animal experiment similar to that for the solid composition of Example 3. Specifically, while the powder composed only of cannabidiol in Comparative Example 1 was used as the control, the animal experiment was performed in accordance with the above-described oral absorption evaluation method.

Dissolution test 2 = format: physicochemical; details: composition with 0.4 mg cannabidiol in 45 g ion-exchanged water, 0.45 μm filtrate
Method: In a 50 mL screw vial, such a solid composition including 0.4 mg of cannabidiol was dissolved in 45 g of ion-exchanged water. The resultant solution was filtered through a 0.45 μm membrane filter; the filtrate was diluted two-fold with ethanol and further filtered through a 0.20 μm membrane filter; HPLC was performed to quantify the cannabidiol. The value was rounded to two decimal places to determine the dissolution amount. The 0.45 μm membrane filter, the 0.20 μm membrane filter, and the HPLC conditions were as described in the dissolution test 1.

[2] = Dissolution test 1: dissolution amount; format: physicochemical; details: cannabidiol; 8 mg in capsule, 900 mL ion-exchanged water, 37° C., 0.45 μm filtrate
Method: As the dissolution testing apparatus, an “NTR-6600AST” manufactured by Toyama Sangyo Co., Ltd. was used; the vessel was charged with 900 mL of ion-exchanged water; for the purpose of degassing, the water was stirred overnight at a water temperature of 37° C.±0.2° C. A gelatin capsule (“HF capsule” manufactured by Matsuya Corporation) filled with the solid composition containing 8 mg of the cannabidiol was placed into a sinker, and immersed into the vessel. After a lapse of a predetermined time, sampling was performed in the vessel and the sample was filtered through a 0.45 μm membrane filter. […] The filtrate was diluted two-fold with ethanol and filtered through a 0.20 μm membrane filter; HPLC was performed to quantify the cannabidiol. For each solid composition, two samples were tested and the resultant values were averaged; the average was rounded to two decimal places to determine the dissolution amount.
The 0.45 μm membrane filter employed was “25HP045AN” (filter material: PTFE, pore size: 0.45 μm) manufactured by ADVANTEC. The 0.20 μm membrane filter employed was “13HP020AN” (filter material: PTFE, pore size: 0.20 μm) manufactured by ADVANTEC.
The HPLC conditions were column: octadecylsilyl column, solvent: mixed solution of acetonitrile/10 mM aqueous ammonium acetate solution, and wavelength: 210 nm. […]

[3] = Amorphization evaluation: XRD; format: physicochemical
Method: A “RINT UltimaIII horizontal goniometer (D/teX-25)” manufactured by Rigaku Corporation was used to obtain the XRD chart of such a solid composition. The XRD measurement conditions were the focusing method, X-ray: Cu/40 kV/40 mA, scanning range: 3.0° to 50.0°, and scanning axis: 2θ/θ.

Question: With `C=C(C)[C@@H]1CCC(C)=C[C@H]1c1c(O)cc(CCCCC)cc1O` [Comparative Example 1, cannabidiol] as the compound, how does the “AUC (area under the blood concentration time curve) of the cannabidiol” value ([1]; 30 mg/kg) read?
Answer: 665 ng·h/mL

Question: What about the AUC ([1]; rat, plasma, read-out: AUC (area under the blood concentration time curve) of the cannabidiol) of the same compound?
Answer: 812 ng·h/mL

Question: And the “Dissolution test 2 dissolution amount” value (Dissolution test 2)?
Answer: 0.03 µg/mL

Question: And the “Dissolution amount after lapse of 120 minutes” value [2]?
Answer: 0.01 µg/mL

Question: What about the “Dissolution amount after lapse of 240 minutes” value [2] of the same compound?
Answer: 0.01 µg/mL

Question: And the “Form of the cannabinoid from the XRD chart (in words)” value [3]?
Answer: crystalline state
